Results reported in patent US10793591B2, “Substituted nucleosides, nucleotides and analogs thereof” (priority 2012, dated 2020).
Read-outs that look alike come from different tables or passages of the source.

Legend:
[1] = molecular target: human mitochondrial RNA polymerase (Homo sapiens (Human), UniProt O00411); experiment: DdRp assay: incorporation of nucleotides by human mitochondrial RNA polymerase (HMRP); settings: 100 μM NTP, single turnover, product band on gel
[2] = tested on: HCV genotype 1b HCV replicon harbored in Huh7 cells; experiment: Combination testing in HCV replicon (MacSynergy II); type: cell-based; settings: for Synergy Volume: combination with compound 18, 72 h, MacSynergy II, Bliss independence model; for Determination: combination with compound 18, class from synergy volume
[3] = tested on: Huh-7 cells containing the self-replicating, subgenomic HCV replicon; experiment: HCV replicon assay (luciferase reporter); type: cell-based
[4] = tested on: mitochondrial protein synthesis (COX-I relative to SDH-A) in HepG2 cells
[5] = Hepatitis C virus, Huh-7, HCV replicon cells, 72 h, Bright-Glo luciferase, read-out: EC50

Sequence of human mitochondrial RNA polymerase (O00411 42-1230): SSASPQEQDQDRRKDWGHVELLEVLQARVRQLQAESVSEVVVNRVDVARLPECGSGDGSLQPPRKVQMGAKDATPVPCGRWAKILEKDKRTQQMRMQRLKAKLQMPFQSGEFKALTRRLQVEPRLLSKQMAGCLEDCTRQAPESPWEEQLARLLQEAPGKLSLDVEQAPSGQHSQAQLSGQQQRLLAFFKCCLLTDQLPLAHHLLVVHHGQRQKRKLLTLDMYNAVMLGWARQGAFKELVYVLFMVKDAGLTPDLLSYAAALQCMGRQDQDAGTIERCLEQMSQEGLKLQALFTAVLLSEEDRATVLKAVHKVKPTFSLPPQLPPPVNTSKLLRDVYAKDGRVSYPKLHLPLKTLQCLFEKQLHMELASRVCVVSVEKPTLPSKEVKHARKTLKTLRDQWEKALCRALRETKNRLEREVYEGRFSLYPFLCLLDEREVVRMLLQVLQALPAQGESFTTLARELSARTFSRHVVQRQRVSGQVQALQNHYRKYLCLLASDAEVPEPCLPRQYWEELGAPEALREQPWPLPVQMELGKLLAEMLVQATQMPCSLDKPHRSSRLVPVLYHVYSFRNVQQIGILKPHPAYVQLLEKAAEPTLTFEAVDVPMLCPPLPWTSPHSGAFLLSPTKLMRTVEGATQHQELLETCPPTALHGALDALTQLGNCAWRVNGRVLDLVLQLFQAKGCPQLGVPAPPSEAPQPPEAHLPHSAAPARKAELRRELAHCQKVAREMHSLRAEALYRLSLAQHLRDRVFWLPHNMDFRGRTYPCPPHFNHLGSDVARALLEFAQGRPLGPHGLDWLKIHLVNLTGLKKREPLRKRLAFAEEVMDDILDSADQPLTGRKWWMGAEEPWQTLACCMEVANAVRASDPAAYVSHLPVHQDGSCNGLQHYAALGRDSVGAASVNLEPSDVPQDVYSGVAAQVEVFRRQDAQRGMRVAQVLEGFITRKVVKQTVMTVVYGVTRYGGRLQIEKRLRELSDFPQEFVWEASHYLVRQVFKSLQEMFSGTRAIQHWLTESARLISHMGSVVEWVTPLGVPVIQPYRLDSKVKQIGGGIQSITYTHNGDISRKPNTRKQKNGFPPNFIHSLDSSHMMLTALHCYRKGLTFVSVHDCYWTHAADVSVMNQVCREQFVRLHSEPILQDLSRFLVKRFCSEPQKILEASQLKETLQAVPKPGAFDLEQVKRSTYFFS

| Structure (SMILES) | EC50 ([3]; Hepatitis C virus, Huh-7, 72 h) [nM] | other results |
| --- | --- | --- |
| C[C@@]1(F)[C@H](O)[C@@H](COP(=O)(O)OP(=O)(O)OP(=O)(O)O)O[C@H]1n1ccc(=O)[nH]c1=O [2′-Me-2′-F-UTP] |  | incorporation by HMRP (template for UTP analogs, FIG. 10) [1]: not efficient substrates for incorporation by HMRP |
| Nc1ncnc2c1ncn2[C@@H]1O[C@H](COP(=O)(O)OP(=O)(O)OP(=O)(O)O)[C@@H](O)[C@H]1O [ATP] |  | incorporation by HMRP (template for GTP analogs, FIG. 11) [1]: poor substrate for incorporation |
| COC(=O)N[C@H](C(=O)N1CCC[C@H]1c1nc(-c2ccc(-c3ccc(-c4c[nH]c([C@@H]5CCCN5C(=O)[C@@H](NC(=O)OC)C(C)C)n4)cc3)cc2)c[nH]1)C(C)C [BMS-790052 (4001)] |  | Synergy Volume [2]: 38.01 μM^2%; Determination [2]: Synergistic (volumes in the 25-100 range indicate synergistic behavior) |
| CC(C)OC(=O)[C@H](C)NP(=O)(OC[C@@]1(F)O[C@@H](n2ccc(=O)[nH]c2=O)[C@](C)(O)[C@@H]1O)Oc1ccccc1 (stereo partly drawn) [Compound 2] | < 1000 |  |
| C[C@H](NP(=O)(OC[C@@]1(F)O[C@@H](n2ccc(=O)[nH]c2=O)[C@](C)(O)[C@@H]1O)Oc1ccccc1)C(=O)OC1CCCCC1 (stereo partly drawn) [Compound 3] | < 1000 |  |
| C[C@H](NP(=O)(OC[C@@]1(F)O[C@@H](n2cnc3c(=O)[nH]c(N)nc32)[C@](C)(O)[C@@H]1O)Oc1ccccc1)C(=O)OC1CCCCC1 (stereo partly drawn) [Compound 11] | < 1000 |  |
| CCOc1nc(N)nc2c1ncn2[C@@H]1O[C@](F)(COP(=O)(N[C@@H](C)C(=O)OC2CCCCC2)Oc2ccccc2)[C@@H](O)[C@@]1(C)O (stereo partly drawn) [Compound 16] | < 1000 |  |
| CCOc1nc(N)nc2c1ncn2[C@@H]1O[C@](F)(COP(=O)(N[C@@H](C)C(=O)OCC(C)(C)C)Oc2ccccc2)[C@@H](O)[C@@]1(C)O (stereo partly drawn) [Compound 17] | < 1000 |  |
| CC(C)OC(=O)C(C)N[P@](=O)(OC[C@@]1(F)O[C@@H](n2ccc(=O)[nH]c2=O)[C@](C)(O)[C@@H]1O)Oc1ccccc1 (stereo partly drawn) [Compound 18] | < 1000 |  |
| CC(C)OC(=O)C(C)N[P@@](=O)(OC[C@@]1(F)O[C@@H](n2ccc(=O)[nH]c2=O)[C@](C)(O)[C@@H]1O)Oc1ccccc1 (stereo partly drawn) [Compound 19] | < 1000 |  |
| CC(N[P@](=O)(OC[C@@]1(F)O[C@@H](n2ccc(=O)[nH]c2=O)[C@](C)(O)[C@@H]1O)Oc1ccccc1)C(=O)OC1CCCCC1 (stereo partly drawn) [Compound 20] | < 1000 |  |
| CC(N[P@@](=O)(OC[C@@]1(F)O[C@@H](n2ccc(=O)[nH]c2=O)[C@](C)(O)[C@@H]1O)Oc1ccccc1)C(=O)OC1CCCCC1 (stereo partly drawn) [Compound 21] | < 1000 |  |
| C#C[C@]1(O)[C@H](n2ccc(=O)[nH]c2=O)O[C@](F)(COP(=O)(N[C@@H](C)C(=O)OC2CCCCC2)Oc2ccccc2)[C@H]1O (stereo partly drawn) [Compound 22] | < 1000 |  |
| C#C[C@]1(O)[C@H](n2cnc3c(OCC)nc(N)nc32)O[C@](F)(CO[P@](=O)(N[C@@H](C)C(=O)OC2CCCCC2)Oc2ccccc2)[C@H]1O [Compound 34] |  | EC50 ([3]; read-out: EC50): < 1000 nM |
| C#C[C@]1(O)[C@H](n2cnc3c(OCC)nc(N)nc32)O[C@](F)(CO[P@@](=O)(N[C@@H](C)C(=O)OC2CCCCC2)Oc2ccccc2)[C@H]1O [Compound 35] |  | EC50 ([3]; read-out: EC50): < 1000 nM |
| CCOc1nc(N)nc2c1ncn2[C@@H]1O[C@]2(F)CO[P@](=O)(OC(C)C)O[C@H]2[C@@]1(C)F [Compound 42] |  | EC50 [3, 5]: < 1000 nM |
| CC(C)OC(=O)[C@H](C)NP(=O)(OC[C@@]1(F)O[C@@H](n2ccc(=O)[nH]c2=O)[C@](C)(O)[C@@H]1O)Oc1cccc2ccccc12 (stereo partly drawn) [Compound 54] | < 1000 |  |
| CC(C)OC(=O)[C@H](C)NP(=O)(OC[C@@]1(F)O[C@@H](n2ccc(=O)[nH]c2=O)[C@](C)(O)[C@@H]1O)Oc1ccc(Cl)cc1 (stereo partly drawn) [Compound 56] | < 1000 |  |
| CC(=O)O[C@H]1[C@@](C)(O)[C@H](n2ccc(=O)[nH]c2=O)O[C@]1(F)COP(=O)(N[C@@H](C)C(=O)OC(C)C)Oc1ccc(Cl)cc1 (stereo partly drawn) [Compound 57] | < 1000 |  |
| CC(C)(C)C(=O)SCCCCOP(=O)(OCCCCSC(=O)C(C)(C)C)OC[C@@]1(F)O[C@@H](n2ccc(=O)[nH]c2=O)[C@](C)(O)[C@@H]1O [Compound 60] | 10000 to 100000 |  |
| CC(C)OC(=O)OCOP(=O)(OCOC(=O)OC(C)C)OC[C@@]1(F)O[C@@H](n2ccc(=O)[nH]c2=O)[C@](C)(F)[C@@H]1O [Compound 61] |  | EC50 [3, 5]: < 1000 nM |
| CC(C)OC(=O)[C@H](C)NP(=O)(OC[C@@]1(F)O[C@@H](n2ccc(=O)[nH]c2=O)[C@](C)(Cl)[C@@H]1O)Oc1ccccc1 (stereo partly drawn) [Compound 62] | < 1000 |  |
| CCOc1nc(N)nc2c1ncn2[C@@H]1O[C@](F)(COP(=O)(N[C@@H](C)C(=O)OC2CCCCC2)Oc2ccccc2)[C@@H](O)[C@@]1(C)F (stereo partly drawn) [Compound 66] | < 1000 |  |
| CCOC(=O)[C@H](C)NP(=O)(N[C@@H](C)C(=O)OCC)OC[C@@]1(F)O[C@@H](n2ccc(=O)[nH]c2=O)[C@](C)(O)[C@@H]1O [Compound 67] | 1000 to 10000 |  |

| Structure (SMILES) | EC50 ([3]; Hepatitis C virus, Huh-7, 72 h) [nM] | other results |
| --- | --- | --- |
| CC(C)OC(=O)[C@H](C)NP(=O)(N[C@@H](C)C(=O)OC(C)C)OC[C@@]1(F)O[C@@H](n2ccc(=O)[nH]c2=O)[C@](C)(O)[C@@H]1O [Compound 70] | 1000 to 10000 |  |
| C=C=C[C@]1(O)[C@H](n2ccc(=O)[nH]c2=O)O[C@](F)(CO[P@@](=O)(N[C@@H](C)C(=O)OC(C)C)Oc2ccccc2)[C@H]1O [Compound 73] | 1000 to 10000 |  |
| C=C[C@]1(O)[C@H](n2ccc(=O)[nH]c2=O)O[C@](F)(COP(=O)(N[C@@H](C)C(=O)OC(C)C)Oc2ccccc2)[C@H]1O (stereo partly drawn) [Compound 77] | 1000 to 10000 |  |
| CCOc1nc(N)nc2c1ncn2[C@@H]1O[C@]2(F)COP(=O)(OCC)O[C@H]2[C@@]1(C)F (stereo partly drawn) [Compound 79] | < 1000 |  |
| CCOc1nc(N)nc2c1ncn2[C@@H]1O[C@]2(F)COP(=O)(OCC(C)C)O[C@H]2[C@@]1(C)F (stereo partly drawn) [Compound 80] | 1000 to 10000 |  |
| CCOc1nc(N)nc2c1ncn2[C@@H]1O[C@]2(F)COP(=O)(OC(C)C)O[C@H]2[C@@]1(C)F (stereo partly drawn) [Compound 81] | < 1000 |  |
| CCOc1nc(N)nc2c1ncn2C1O[C@](F)(COP(=O)(N[C@@H](C)C(=O)OC(C)C)Oc2cccc3ccccc23)[C@@H](O)[C@@]1(C)F (stereo partly drawn) [Compound 83] | < 1000 |  |
| CCOc1nc(N)nc2c1ncn2C1O[C@](F)(COP(=O)(N[C@@H](C)C(=O)OC(C)C)Oc2ccccc2)[C@@H](O)[C@@]1(C)F (stereo partly drawn) [Compound 85] | < 1000 |  |
| CCOc1nc(N)nc2c1ncn2C1O[C@](F)(COP(=O)(N[C@@H](C)C(=O)OCC(C)C)Oc2ccccc2)[C@@H](O)[C@@]1(C)F (stereo partly drawn) [Compound 86] | < 1000 |  |
| CCOc1nc(N)nc2c1ncn2[C@@H]1O[C@](F)(COP(=O)(N[C@@H](C)C(=O)OC2CCCC2)Oc2ccccc2)[C@@H](O)[C@@]1(C)F (stereo partly drawn) [Compound 87] | < 1000 |  |
| CCOc1nc(N)nc2c1ncn2[C@@H]1O[C@](F)(COP(=O)(N[C@@H](C)C(=O)OC(CC)CC)Oc2ccccc2)[C@@H](O)[C@@]1(C)F (stereo partly drawn) [Compound 88] | < 1000 |  |
| CCOc1nc(N)nc2c1ncn2[C@@H]1O[C@](F)(COP(=O)(N[C@@H](C)C(=O)OCC(C)(C)C)Oc2cccc3ncccc23)[C@@H](O)[C@@]1(C)F (stereo partly drawn) [Compound 89] | < 1000 |  |
| CCOc1nc(N)nc2c1ncn2[C@@H]1O[C@](F)(COP(=O)(N[C@@H](C)C(=O)OCC(C)(C)C)Oc2cccc3ccccc23)[C@@H](O)[C@@]1(C)F (stereo partly drawn) [Compound 90] | < 1000 |  |
| CCOc1nc(N)nc2c1ncn2[C@@H]1O[C@](F)(COP(=O)(N[C@@H](C)C(=O)OCC(C)(C)C)Oc2ccccc2)[C@@H](O)[C@@]1(C)F (stereo partly drawn) [Compound 91] | < 1000 |  |
| CCc1cc(CC[C@]2(C3CCCC3)CC(O)=C(Cc3nc4nc(C)cc(C)n4n3)C(=O)O2)cc(CC)n1 [Filibuvir (3007)] |  | Synergy Volume [2]: 23.51 μM^2%; Determination [2]: Additive (volumes in the −25-25 range indicate additive behavior) |
| CNC(=O)c1c(-c2ccc(F)cc2)oc2cc(N(CCO)S(C)(=O)=O)c(C3CC3)cc12 [HCV-796 (3004)] |  | Synergy Volume [2]: 81.72 μM^2%; Determination [2]: Synergistic (volumes in the 25-100 range indicate synergistic behavior) |
| COc1nc(N)nc2c1ncn2[C@@H]1O[C@H](COP(=O)(N[C@@H](C)C(=O)OCC(C)(C)C)Oc2cccc3ccccc23)[C@@H](O)[C@@]1(C)O (stereo partly drawn) [INX-08189/BMS-986094] |  | inhibition of mitochondrial protein synthesis [4]: strongly inhibit mitochondrial protein synthesis |
| NC(=O)c1ncn([C@@H]2O[C@H](CO)[C@@H](O)[C@H]2O)n1 [Ribavirin (5012), Ribavirin] |  | Synergy Volume [2]: 6.77 μM^2%; Determination [2]: Additive (volumes in the −25-25 range indicate additive behavior) |
| COc1ccc2c(O[C@@H]3C[C@H]4C(=O)N[C@]5(C(=O)NS(=O)(=O)C6CC6)C[C@H]5/C=C\CCCCN(C)C(=O)[C@@H]4C3)cc(-c3nc(C(C)C)cs3)nc2c1C [TMC-435 (1013)] |  | Synergy Volume [2]: 97.17 μM^2%; Determination [2]: Synergistic (volumes in the 25-100 range indicate synergistic behavior) |
| CC(C)(C)C#Cc1cc(N(C(=O)[C@H]2CC[C@H](C)CC2)[C@H]2CC[C@H](O)CC2)c(C(=O)O)s1 [VX-222 (3003)] |  | Synergy Volume [2]: 32.35 μM^2%; Determination [2]: Synergistic (volumes in the 25-100 range indicate synergistic behavior) |
| CCC[C@H](NC(=O)[C@@H]1[C@H]2CCC[C@H]2CN1C(=O)[C@@H](NC(=O)[C@@H](NC(=O)c1cnccn1)C1CCCCC1)C(C)(C)C)C(=O)C(=O)NC1CC1 [VX-950 (1001)] |  | Synergy Volume [2]: 32.28 μM^2%; Determination [2]: Synergistic (volumes in the 25-100 range indicate synergistic behavior) |
| Cc1cn([C@H]2C=C[C@@H](CO)O2)c(=O)[nH]c1=O [d4T] |  | inhibition of mitochondrial protein synthesis [4]: not to inhibit mitochondrial protein synthesis at concentrations up to 100 μM |
| Nc1ccn([C@H]2CC[C@@H](CO)O2)c(=O)n1 [ddC] |  | inhibition of mitochondrial protein synthesis [4]: strongly inhibit mitochondrial protein synthesis |
